Test results as given in paper PMC10656490, “Sequence-based prediction of the intrinsic solubility of peptides containing non-natural amino acids” (Nature Communications, 2023).
Where a SMILES comes first, the peptide text is derived from it. [ ]: non-standard residue; d: D form. Cha = N[C@@H](CC1CCCCC1)C(=O)O; Cit = NC(=O)NCCC[C@H](N)C(=O)O; Nle = CCCC[C@H](N)C(=O)O; Aib = CC(C)(N)C(=O)O

Legend:
[1] = Ammonium sulphate (AMS) precipitation relative solubility assay (18 A variants); type: physicochemical; settings: for PEG1/2 / Second Run: 18A variants; for PEG1/2: Figure 3b; for Second Run: precipitation midpoint, Figure S3; for solubility of 18 A variants (in words): pH 7
Method: Relative solubility was measured using a recently developed PEG precipitation assay. For all PYY variants the standard assay worked well, and no changes had to be implemented (Fig. 2a). […] Moreover, to ensure that the results stemming from the AMS assay are consistent and reliable, we performed the 18 A experiments twice independently on different days. The results confirmed that they are indeed replicable, and we were therefore confident to use them for the validation of our approach (Supplementary Fig. 3). […] Even at final concentrations of 0.33 mg/mL (instead of 1 mg/mL) most variants remained insoluble. We used ultracentrifugation to determine the relative solubilities of the GLP-1 variants (Table 3). To confirm the reliability of this method we replicated the results on a different day with the same stock solutions (Supplementary Fig. 4).
Aliquots of 1 mg were prepared from the purified and lyophilised stocks. […] Briefly, a precipitant is titrated in increasing concentration to a fixed concentration of protein to induce precipitation of the protein. The samples are incubated for 48 h at 4° after mixing. The samples are centrifuged and the remaining protein concentration is measured in the supernatant using a plate reader. PYY and 18 A variants were dissolved in 10 mM citrate 10 mM phosphate buffer at pH 7 for a final concentration of 3 mg/mL. The assay was run with 50% 6000 PEG for PYY and with 3.8 M AMS for 18 A. To improve throughput, a multichannel robot was employed to measure several peptides at once with the workflow being kept the same as described previously. […] 120 µL of each sample were centrifuged using an OptimaTLX Ultracentrifuge and spinning for 30 min at 500,000 g at 4 °C. The supernatant was removed, and the peptide concentration was measured using a NanoDrop.

[2] = cited from earlier work

Molecule | PEG1/2 [1] | Second Run [1] | half-life [2] | solubility of 18 A variants (in words) [1]
CC(=O)N[C@@H](CC(=O)O)C(=O)N[C@@H](Cc1c[nH]c2ccccc12)C(=O)N[C@@H](Cc1ccccc1)C(=O)N[C@@H](CCCCN)C(=O)N[C@@H](C)C(=O)N[C@@H](Cc1ccccc1)C(=O)N[C@@H](Cc1ccc(O)cc1)C(=O)N[C@@H](CC(=O)O)C(=O)N[C@@H](CCCCN)C(=O)N[C@H](C(=O)NC(C)(C)C(=O)N[C@@H](CCC(=O)O)C(=O)N[C@@H](CCCCN)C(=O)N[C@@H](Cc1ccccc1)C(=O)N[C@@H](CCCCN)C(=O)N[C@@H](CCC(=O)O)C(=O)N[C@@H](C)C(=O)N[C@@H](Cc1ccccc1)C(N)=O)C(C)C [Compound 15] (Ac-DWFKAFYDKV[Aib]EKFKEAF-NH2) | 1.783 | 1.487 |  | 
CCCC[C@H](NC(=O)[C@H](CCCCN)NC(=O)[C@H](CCC(=O)O)NC(=O)[C@H](C)NC(=O)[C@@H](NC(=O)[C@H](CCCCN)NC(=O)[C@H](CC(=O)O)NC(=O)[C@H](Cc1ccc(O)cc1)NC(=O)[C@H](Cc1ccccc1)NC(=O)[C@H](C)NC(=O)[C@H](CCCCN)NC(=O)[C@H](CCCCNC(C)=O)NC(=O)[C@H](Cc1c[nH]c2ccccc12)NC(=O)[C@H](CC(=O)O)NC(C)=O)C(C)C)C(=O)N[C@@H](CCCCN)C(=O)N[C@@H](CCC(=O)O)C(=O)N[C@@H](C)C(=O)N[C@@H](Cc1ccccc1)C(N)=O [Nac, Nle] (Ac-DWK(Ac)KAFYDKVAEK[Nle]KEAF-NH2) | 2.52 | 1.409 |  | 
PYY: gut hormone with a length of 36 amino acids |  |  | approximately 10 minutes | 
CCCC[C@H](NC(=O)[C@H](CCC(=O)O)NC(=O)[C@H](CCCCN)NC(=O)[C@H](Cc1ccccc1)NC(=O)[C@H](CCCCN)NC(=O)[C@H](CCC(=O)O)NC(=O)[C@H](C)NC(=O)[C@@H](NC(=O)[C@H](CCCCN)NC(=O)[C@H](CC(=O)O)NC(=O)[C@H](Cc1ccc(O)cc1)NC(=O)[C@H](Cc1ccccc1)NC(=O)[C@H](CC1CCCCC1)NC(=O)[C@H](CCCCN)NC(=O)[C@H](Cc1ccccc1)NC(=O)[C@H](Cc1c[nH]c2ccccc12)NC(=O)[C@H](CC(=O)O)NC(C)=O)C(C)C)C(=O)N[C@@H](Cc1ccccc1)C(N)=O [Compound 18] (Ac-DWFK[Cha]FYDKVAEKFKE[Nle]F-NH2) |  |  |  | completely insoluble
CC(=O)N[C@@H](CC(=O)O)C(=O)N[C@@H](Cc1c[nH]c2ccccc12)C(=O)N[C@@H](Cc1ccccc1)C(=O)N[C@@H](CCCCN)C(=O)N[C@@H](C)C(=O)N[C@@H](Cc1ccccc1)C(=O)N[C@@H](Cc1ccc(O)cc1)C(=O)N[C@@H](CC(=O)O)C(=O)N[C@@H](CCCCN)C(=O)N[C@H](C(=O)N[C@@H](CCCNC(N)=O)C(=O)N[C@@H](CCC(=O)O)C(=O)N[C@@H](CCCCN)C(=O)N[C@@H](Cc1ccccc1)C(=O)N[C@@H](CCCCN)C(=O)N[C@@H](CCC(=O)O)C(=O)N[C@@H](C)C(=O)N[C@@H](Cc1ccccc1)C(N)=O)C(C)C [Compound 16] (Ac-DWFKAFYDKV[Cit]EKFKEAF-NH2) | 1.901 | 1.251 |  | 
CC(=O)N[C@@H](CC(=O)O)C(=O)N[C@@H](Cc1c[nH]c2ccccc12)C(=O)N[C@@H](CC1CCCCC1)C(=O)N[C@@H](CCCCN)C(=O)N[C@@H](C)C(=O)N[C@@H](Cc1ccccc1)C(=O)N[C@@H](Cc1ccc(O)cc1)C(=O)N[C@@H](CC(=O)O)C(=O)N[C@@H](CCCCN)C(=O)N[C@H](C(=O)N[C@@H](CC1CCCCC1)C(=O)N[C@@H](CCC(=O)O)C(=O)N[C@@H](CCCCN)C(=O)N[C@@H](Cc1ccccc1)C(=O)N[C@@H](CCCCN)C(=O)N[C@@H](CCC(=O)O)C(=O)N[C@@H](C)C(=O)N[C@@H](Cc1ccccc1)C(N)=O)C(C)C [Cha, Cha] (Ac-DW[Cha]KAFYDKV[Cha]EKFKEAF-NH2) | 0 | 0 |  | 
CC(=O)NCCCC[C@H](NC(=O)[C@@H](NC(=O)[C@H](CCCCN)NC(=O)[C@H](CC(=O)O)NC(=O)[C@H](Cc1ccc(O)cc1)NC(=O)[C@H](Cc1ccccc1)NC(=O)[C@H](C)NC(=O)[C@H](CCCCN)NC(=O)[C@H](Cc1ccccc1)NC(=O)[C@H](Cc1c[nH]c2ccccc12)NC(=O)[C@H](CC(=O)O)NC(C)=O)C(C)C)C(=O)N[C@@H](CCC(=O)O)C(=O)N[C@@H](CCCCN)C(=O)N[C@@H](Cc1ccccc1)C(=O)N[C@@H](CCCCN)C(=O)N[C@@H](CCC(=O)O)C(=O)N[C@@H](C)C(=O)N[C@@H](Cc1ccccc1)C(N)=O [Compound 14] (Ac-DWFKAFYDKVK(Ac)EKFKEAF-NH2) | 1.287 | 0.527 |  | 
CCCC[C@H](NC(=O)[C@H](CCC(=O)O)NC(=O)[C@H](CCCCN)NC(=O)[C@H](Cc1ccccc1)NC(=O)[C@H](CCCCN)NC(=O)[C@H](CCC(=O)O)NC(=O)[C@H](C)NC(=O)[C@@H](NC(=O)[C@H](CCCCN)NC(=O)[C@H](CC(=O)O)NC(=O)[C@H](Cc1ccc(O)cc1)NC(=O)[C@H](Cc1ccccc1)NC(=O)[C@H](CC1CCCCC1)NC(=O)[C@H](CCCCN)NC(=O)[C@H](Cc1ccccc1)NC(=O)[C@H](Cc1c[nH]c2ccccc12)NC(=O)[C@H](CC(=O)O)NC(C)=O)C(C)C)C(=O)N[C@@H](Cc1ccccc1)C(N)=O [Cha, Nle] (Ac-DWFK[Cha]FYDKVAEKFKE[Nle]F-NH2) | 0 | 0 |  | 
CC(=O)N[C@@H](CC(=O)O)C(=O)N[C@@H](Cc1c[nH]c2ccccc12)C(=O)N[C@@H](CC1CCCCC1)C(=O)N[C@@H](CCCCN)C(=O)N[C@@H](C)C(=O)N[C@@H](Cc1ccccc1)C(=O)N[C@@H](Cc1ccc(O)cc1)C(=O)N[C@@H](CC(=O)O)C(=O)N[C@@H](CCCCN)C(=O)N[C@H](C(=O)N[C@@H](CC1CCCCC1)C(=O)N[C@@H](CCC(=O)O)C(=O)N[C@@H](CCCCN)C(=O)N[C@@H](Cc1ccccc1)C(=O)N[C@@H](CCCCN)C(=O)N[C@@H](CCC(=O)O)C(=O)N[C@@H](C)C(=O)N[C@@H](Cc1ccccc1)C(N)=O)C(C)C [Compound 17, [ntDAC]W[CHA]KAFYDKV[CHA]EKFKEA[ctFAD]] (Ac-DW[Cha]KAFYDKV[Cha]EKFKEAF-NH2) |  |  |  | completely insoluble
CCCC[C@H](NC(=O)[C@@H](NC(=O)[C@H](CCCCN)NC(=O)[C@H](CC(=O)O)NC(=O)[C@H](Cc1ccc(O)cc1)NC(=O)[C@H](Cc1ccccc1)NC(=O)[C@H](C)NC(=O)[C@H](CCCCN)NC(=O)[C@H](Cc1ccccc1)NC(=O)[C@H](Cc1c[nH]c2ccccc12)NC(=O)[C@H](CC(=O)O)NC(C)=O)C(C)C)C(=O)N[C@@H](CCC(=O)O)C(=O)N[C@@H](CCCCN)C(=O)N[C@@H](Cc1ccccc1)C(=O)N[C@@H](CCCCN)C(=O)N[C@@H](CCC(=O)O)C(=O)N[C@@H](C)C(=O)N[C@@H](Cc1ccccc1)C(N)=O [Compound 13] (Ac-DWFKAFYDKV[Nle]EKFKEAF-NH2) | 1.618 | 0.923 |  | 
